# Entries after “also recorded” stand apart in the source; their conditions may differ. No end group written: not given here.
# Key:
# [1] = test system: opiate receptor, guinea pig brain membranes; assay: Opiate agonist activity by receptor binding assay (method of Simon et al.), inhibition of stereospecific binding; settings: for Response: percentage of inhibition of stereospecific binding: mean ± standard error from 4 determinations
# Protocol: The opiate agonist activity of natural beta-endophine was determined by the method of Simon et al., Proc. Nat. Acad. Sci. 70, 1947 (1973) using guinea pig brain membranes. The results obtained are summarized below in Table 4:
# ^a Percentage of inhibition of stereospecific binding.
# Mean ± standard error from 4 determinations.
# rabbit fat cells = assay: Lipolytic activity in rabbit fat cells (procedure of Li et al.), glycerol production; format: cell-based; settings: for Response: glycerol production: triplicate, mean ± standard error
# Description: The lypolytic activity of natural beta-endorphin was compared to the activity of ovine beta-lipotropin hormone in rabbit fat cells using the procedure of Li et al., Arch. Biochem. Biophys. 169, 669 (1975).
# ^a Micromole of glycerol production per gram of cells per hour.
# Determinations in triplicate. Values in mean ± standard error.
# [2] = pentapeptide isolated from pig brains; cited from earlier work
molecule,measurement,setting,value
YGGFMTSEKSQTPLVTLFKNAIIKNAHKKGQ [beta-endorphin],Opiate agonist activity (in words),[1],potent opiate agonist activity; also recorded: significant opiate agonist activity
same,Relative potency to normorphine,"[1]; 95% confidence limit of 300-392, λ = 0.044",342%
same,Response: percentage of inhibition of stereospecific binding,[1]; dose 1.0 x 10^-7 M,60 ± 0.7%
same,Response: percentage of inhibition of stereospecific binding,[1]; dose 10.0 x 10^-7 M,83 ± 0.2%
same,Potency relative to normorphine on a molar basis,[1]; molar basis,3.42 times
same,Lipolytic activity in comparison to the complete hormone (in words),rabbit fat cells; compared with beta-lipotropin hormone,very low
same,Response: glycerol production,rabbit fat cells; dose 1.1 (unit not given),0.66 ± 0.28 Micromole of glycerol producti
same,Response: glycerol production,rabbit fat cells; dose 10.0 (unit not given),1.42 ± 0.37 Micromole of glycerol producti
"Oc1ccc2c3c1O[C@H]1[C@@H](O)C=C[C@H]4[C@@H](C2)NCC[C@@]341 [Normorphine, reference compound]",Response: percentage of inhibition of stereospecific binding,[1]; dose 0.7 x 10^-7 M,28 ± 0.8%
same,Response: percentage of inhibition of stereospecific binding,[1]; dose 7.0 x 10^-7 M,70 ± 0.9%
H-Tyr-Gly-Gly-Phe-Met-OH- (H-YGGFM-OH) [pentapeptide isolated from pig brains by Hughes et al],Opiate agonist activity (in words),[2],exhibits opiate agonist activity

# — patent US4038222A, “Untriakontapeptide with opiate activity” (Hoffman-La Roche Inc., priority 1976, dated 1977)
